{"source": "patent US10091998B2", "about": "“Tetrazolinone compound and use thereof” (SUMITOMO CHEMICAL COMPANY, LIMITED, priority 2013, dated 2018)", "test_system": "cucumber powdery mildew fungus (Sphaerotheca fuliginea, a QoI-resistant strain, cytochrome b position 143 glycine to alanine)", "type": "in vivo", "details": "500 ppm spray on cucumber (SAGAMI HANJIRO); investigated 8 days after inoculation", "data": [{"smiles": "Cn1nnn(-c2ccccc2OCc2ccccc2)c1=O", "note": "[1-[2-(phenylmethoxy)phenyl]-4-methyl-1,4-dihydrotetrazol-5-one]", "values": [{"measurement": "area of lesion on the treated plant relative to that on an untreated plant", "value": "≥ 70", "unit": "%"}]}]}
